In PMC10994559 (PLOS Neglected Tropical Diseases, 2024):

Test system: T. cruzi trypomastigotes
Test: T. cruzi viability, resazurin reduction
Type: cell-based, Trypanosoma cruzi
Settings: Trypanosoma cruzi, 2.5 µM; read-out: viability, T.cruzi (2.5 µM)
Method: T. cruzi (Y strain) trypomastigotes were passaged in liver infusion broth media supplemented with tryptose, NaCl, Na2HPO4, KCl, glucose, hemin, Pen-Strep (1%), 10% FCS (pH: 7.2) and kept at 28°C.
(§1) Viability of T. brucei brucei BSF and T. cruzi trypomastigotes was assayed with fluorescence resazurin reduction assay, essentially as described above. […] Next, selected compounds were tested at 2.5 μM concentration, and promising compounds subjected to 18 concentrations dose response analyses. AN3057 and AmB were used as a control drug in T. brucei and T. cruzi, respectively.
For `N[C@@H](Cc1ccccc1)[C@@H](O)CNc1cccc(C(F)(F)F)c1` [LTC-1029, (2S,3S)-3-Amino-4-phenyl-1-((3-(trifluoromethyl)phenyl)amino)butan-2-ol], the viability at 2.5 µM was 56.8 ± 2.34%. In the case of `CC(=O)c1ccc(NC[C@H](O)[C@@H](N)Cc2ccccc2)cc1` [LTC-1031, 1-(4-(((2S,3S)-3-Amino-2-hydroxy-4-phenylbutyl)amino)phenyl)ethan-1-one], the viability at 2.5 µM is reported as 58.4 ± 1.11%.

Same assay, conditions: Trypanosoma cruzi, 25 µM; read-out: viability, T.cruzi (25 µM)
Work on `N[C@@H](Cc1ccccc1)[C@@H](O)CNc1cccc(C(F)(F)F)c1` [LTC-1029, (2S,3S)-3-Amino-4-phenyl-1-((3-(trifluoromethyl)phenyl)amino)butan-2-ol] yielded a viability at 25 µM of 6.68 ± 2.95%. With `CC(=O)c1ccc(NC[C@H](O)[C@@H](N)Cc2ccccc2)cc1` [LTC-1031, 1-(4-(((2S,3S)-3-Amino-2-hydroxy-4-phenylbutyl)amino)phenyl)ethan-1-one] the viability at 25 µM was 59.3 ± 2.74%.

Test system: L. major axenic amastigotes
Test: L. major axenic amastigote viability, resazurin reduction
Settings: Leishmania major, read-out: viability, L.major amastigote (25 µM)
Method: L. major LV561(MHOM/IL/67/LRC-L137 JERICHO II) amastigotes were passaged in Grace insect medium supplemented with NaHCO3, 0.1% amikin and 20% of FCS (pH: 5.4) and kept at 33°C.
Exponential growth phase promastigotes of L. major or L. infantum and axenic amastigotes (L. major) were harvested and seeded in 384 well plates (white, non-transparent, tissue culture treated, flat bottom; Corning) (0.5x10^5 cells per well). Compounds were pre-dispensed into the plate with an Echo 650 acoustic dispenser (Beckman Coulter). After 72h incubation, resazurin was added (1:10 v/v) from a […] stock in PBS, followed by incubation for six hours. Then, fluorescence intensity was measured using a microplate reader (Synergy H1, BioTek) with excitation filter: 550 nm and emission filter: 590 nm. Efficient compounds were selected for the next round of viability assay with 2.5 μM concentrations of the compounds. […] All experiments were performed with AmB as a positive control drug in parallel.
Axenic amastigotes, the relevant form that persists in the infected host, were generated in the lab through established procedures, employing harsh pH (pH 5) and high temperature (33°C) conditions.
For `N[C@@H](Cc1ccccc1)[C@@H](O)CNc1cccc(C(F)(F)F)c1` [LTC-1029, (2S,3S)-3-Amino-4-phenyl-1-((3-(trifluoromethyl)phenyl)amino)butan-2-ol], the viability at 25 µM was 67.9 ± 2.07%. `CC(=O)c1ccc(NC[C@H](O)[C@@H](N)Cc2ccccc2)cc1` [LTC-1031, 1-(4-(((2S,3S)-3-Amino-2-hydroxy-4-phenylbutyl)amino)phenyl)ethan-1-one] showed a viability at 25 µM of 70.9 ± 2.23%.

Test system: E. histolytica
Test: E. histolytica viability, ATP luminescence (Cell titer glo)
Type: cell-based, Entamoeba histolytica
Settings: Entamoeba histolytica; read-out: viability, E.histolytica (2.5 µM)
Method: Entamoeba histolytica (strain B2-5) was passaged in TY-1 medium (Trypticase peptone BBL, Yeast extract BBL, glucose, NaCl, K2HPO4, KH2PO4, cysteine, ascorbic acid, ammonium iron citrate, adult bovine serum, Diamond tween 80, penicillin G, amikacin (pH:6.8)) and kept in 37°C incubator in completely filled tubes with closed lid.
Viability of E. histolytica was assayed via a luminescence assay based on ATP quantification in the live cells. Briefly, 2.5x10^4 cell/ml were exposed to 25 μM of compounds in 96 well plates (non-transparent, tissue culture treated, flat bottom; SPL Life Sciences) in triplicate for 48h. Plates were incubated in sealed anaerobic bags (Oxoid AGS) together with an Anaerogen compact bag (Thermo Scientific) and anaerobic indicator (Thermo Scientific) at 37°C. Then, Cell titer glo reagent (Promega) was added to the reaction (1:5) according to manufacturers’ instruction. After 15 min of orbital shaking, followed by 10 min incubation at RT, ATP-bioluminescence was quantified at RT using a Synergy H1 plate reader (Synergy H1, BioTek). Metronidazole was included as control drug in all the assays for E. histolytica. Test compounds indicating significant growth reduction in the primary screen were subjected to potency determination. These secondary screens were essentially carried out as detailed above, but with a 9 to 16-point concentration range of the test compounds spanning 0.01–100 μM.
With `N[C@@H](Cc1ccccc1)[C@@H](O)CNc1cccc(C(F)(F)F)c1` [LTC-1029, (2S,3S)-3-Amino-4-phenyl-1-((3-(trifluoromethyl)phenyl)amino)butan-2-ol] the viability at 2.5 µM was 70.3 ± 18.1%. `CC(=O)c1ccc(NC[C@H](O)[C@@H](N)Cc2ccccc2)cc1` [LTC-1031, 1-(4-(((2S,3S)-3-Amino-2-hydroxy-4-phenylbutyl)amino)phenyl)ethan-1-one] gave a viability at 2.5 µM of 74.1 ± 12.7%.

Same assay, conditions: Entamoeba histolytica; read-out: viability, E.histolytica (25 µM)
Work on `N[C@@H](Cc1ccccc1)[C@@H](O)CNc1cccc(C(F)(F)F)c1` [LTC-1029, (2S,3S)-3-Amino-4-phenyl-1-((3-(trifluoromethyl)phenyl)amino)butan-2-ol] yielded a viability at 25 µM of 15.4 ± 5.25%. For `CC(=O)c1ccc(NC[C@H](O)[C@@H](N)Cc2ccccc2)cc1` [LTC-1031, 1-(4-(((2S,3S)-3-Amino-2-hydroxy-4-phenylbutyl)amino)phenyl)ethan-1-one], the viability at 25 µM was 105 ± 18.2%.

Test system: L. infantum promastigotes
Test: L. infantum promastigote viability, resazurin reduction
Type: cell-based, Leishmania infantum
Settings: Leishmania infantum; 2.5 µM; sheet LTC_compound_viability; value ± spread; read-out: viability, L. infantum promastigote (2.5 µM)
From the text: (§2) The infectivity of the parasites was boosted by passaging in Balb/c mice and culturing the infected lymph nodes after six weeks. L. infantum (MHOM / BR / 76 / M4192) parasite was passaged in the same media formulation with 0.5% urine.
In the case of `N[C@@H](Cc1ccccc1)[C@@H](O)CNc1cccc(C(F)(F)F)c1` [LTC-1029, (2S,3S)-3-Amino-4-phenyl-1-((3-(trifluoromethyl)phenyl)amino)butan-2-ol], the viability at 2.5 µM is reported as 82.2 ± 2.25%. With `CC(=O)c1ccc(NC[C@H](O)[C@@H](N)Cc2ccccc2)cc1` [LTC-1031, 1-(4-(((2S,3S)-3-Amino-2-hydroxy-4-phenylbutyl)amino)phenyl)ethan-1-one] the viability at 2.5 µM was 83.7 ± 2.96%.

Same assay, conditions: Leishmania infantum; 25 µM; sheet LTC_compound_viability; value ± spread; read-out: viability, L. infantum promastigote (25 µM)
`N[C@@H](Cc1ccccc1)[C@@H](O)CNc1cccc(C(F)(F)F)c1` [LTC-1029, (2S,3S)-3-Amino-4-phenyl-1-((3-(trifluoromethyl)phenyl)amino)butan-2-ol] gave a viability at 25 µM of 0.37 ± 0.05%. For `CC(=O)c1ccc(NC[C@H](O)[C@@H](N)Cc2ccccc2)cc1` [LTC-1031, 1-(4-(((2S,3S)-3-Amino-2-hydroxy-4-phenylbutyl)amino)phenyl)ethan-1-one], the viability at 25 µM was 44.9 ± 6.2%.

Test system: T. brucei brucei BSF
Test: T. brucei BSF viability, resazurin reduction
Type: cell-based, Trypanosoma brucei brucei
Settings: Trypanosoma brucei, 2.5 µM; read-out: viability, T.brucei (2.5 µM)
Method: T. brucei brucei (strain 427 Lister) blood stream form (BSF) parasites were passaged in complete HMI-9 media supplemented with 10% FCS, Pen-Strep (0.1%) and 2-mercaptoethanol (0.014 v/v) and kept in a 37° C CO2 incubator in filter-cap flasks.
as §1
Work on `N[C@@H](Cc1ccccc1)[C@@H](O)CNc1cccc(C(F)(F)F)c1` [LTC-1029, (2S,3S)-3-Amino-4-phenyl-1-((3-(trifluoromethyl)phenyl)amino)butan-2-ol] yielded a viability at 2.5 µM of -0.97 ± 0.28%. Compound `CC(=O)c1ccc(NC[C@H](O)[C@@H](N)Cc2ccccc2)cc1` [LTC-1031, 1-(4-(((2S,3S)-3-Amino-2-hydroxy-4-phenylbutyl)amino)phenyl)ethan-1-one] has a viability at 2.5 µM of 75.5 ± 4.37%.

Same assay, conditions: Trypanosoma brucei, 25 µM; read-out: viability, T.brucei (25 µM)
`N[C@@H](Cc1ccccc1)[C@@H](O)CNc1cccc(C(F)(F)F)c1` [LTC-1029, (2S,3S)-3-Amino-4-phenyl-1-((3-(trifluoromethyl)phenyl)amino)butan-2-ol] gave a viability at 25 µM of 2.21 ± 0.85%. Work on `CC(=O)c1ccc(NC[C@H](O)[C@@H](N)Cc2ccccc2)cc1` [LTC-1031, 1-(4-(((2S,3S)-3-Amino-2-hydroxy-4-phenylbutyl)amino)phenyl)ethan-1-one] yielded a viability at 25 µM of 2.18 ± 0.95%.

Same assay, conditions: Trypanosoma brucei, 72 h, read-out: Residual viability, T.brucei (2.5 µM), BSF, 2.5 µM, 72 h
Work on `N[C@@H](Cc1ccccc1)[C@@H](O)CNc1cccc(C(F)(F)F)c1` [LTC-1029, (2S,3S)-3-Amino-4-phenyl-1-((3-(trifluoromethyl)phenyl)amino)butan-2-ol] yielded a viability at 2.5 µM of less than 10%.

Test system: intracellular L. infantum amastigotes
Test: Parasite rescue assay (intramacrophage, J774 infected with L. infantum)
Type: cell-based, Leishmania infantum
Settings: J774, 25 µM; intracellular amastigote; read-out: viability, intracellular L. major amastigote (25 µM)
For `N[C@@H](Cc1ccccc1)[C@@H](O)CNc1cccc(C(F)(F)F)c1` [LTC-1029, (2S,3S)-3-Amino-4-phenyl-1-((3-(trifluoromethyl)phenyl)amino)butan-2-ol], the viability at 25 µM was 76.8 ± 12.2%. `CC(=O)c1ccc(NC[C@H](O)[C@@H](N)Cc2ccccc2)cc1` [LTC-1031, 1-(4-(((2S,3S)-3-Amino-2-hydroxy-4-phenylbutyl)amino)phenyl)ethan-1-one] showed a viability at 25 µM of 98 ± 5.56%.

Test system: not listed separately
Test: Cytotoxicity assay J774, resazurin reduction
Type: cell-based, murine
Settings: mouse, J774 macrophage cells; 2.5 µM; read-out: viability, J774 (2.5 µM)
Method: Mammalian cell lines (J774 and HepG2) were passaged in RPMI media supplemented with MEM, Pen-Strep (1%) and 10% FCS. Cultures were kept at 37°C incubator with 5% CO2 in filter-cap flasks.
Murine macrophage cells (J774) and human hepatocyte carcinoma HepG2 cells were seeded at 0.5x10^5 cell/well in 384 well plates in triplicate, exposed to serial dilution of compounds, dispensed using an Echo 650 acoustic dispenser (Labcyte). After incubation for 72 h at 37°C, 5% CO2, cell viability was determined using fluorescence resazurin reduction assay (λEx: 550 nm; λEm: 590 nm).
Work on `N[C@@H](Cc1ccccc1)[C@@H](O)CNc1cccc(C(F)(F)F)c1` [LTC-1029, (2S,3S)-3-Amino-4-phenyl-1-((3-(trifluoromethyl)phenyl)amino)butan-2-ol] yielded a viability at 72 h, 2.5 µM of 94.9 ± 4.03%. Work on `CC(=O)c1ccc(NC[C@H](O)[C@@H](N)Cc2ccccc2)cc1` [LTC-1031, 1-(4-(((2S,3S)-3-Amino-2-hydroxy-4-phenylbutyl)amino)phenyl)ethan-1-one] yielded a viability at 72 h, 2.5 µM of 95.4 ± 4.41%.

Same assay, conditions: mouse, J774 macrophage cells; 25 µM; read-out: viability, J774 (25 µM)
In the case of `N[C@@H](Cc1ccccc1)[C@@H](O)CNc1cccc(C(F)(F)F)c1` [LTC-1029, (2S,3S)-3-Amino-4-phenyl-1-((3-(trifluoromethyl)phenyl)amino)butan-2-ol], the viability at 72 h, 25 µM is reported as 91.9 ± 10.1%. Work on `CC(=O)c1ccc(NC[C@H](O)[C@@H](N)Cc2ccccc2)cc1` [LTC-1031, 1-(4-(((2S,3S)-3-Amino-2-hydroxy-4-phenylbutyl)amino)phenyl)ethan-1-one] yielded a viability at 72 h, 25 µM of -0.69 ± 0.73%.

Test system: L. major promastigotes
Test: L. major promastigote viability, resazurin reduction
Type: cell-based, Leishmania major
Settings: Leishmania major, 72 h, read-out: viability, L.major promastigote (25 µM)
From the text: as §2
Compound `N[C@@H](Cc1ccccc1)[C@@H](O)CNc1cccc(C(F)(F)F)c1` [LTC-1029, (2S,3S)-3-Amino-4-phenyl-1-((3-(trifluoromethyl)phenyl)amino)butan-2-ol] has a viability at 25 µM of 88.9 ± 5.45%. `CC(=O)c1ccc(NC[C@H](O)[C@@H](N)Cc2ccccc2)cc1` [LTC-1031, 1-(4-(((2S,3S)-3-Amino-2-hydroxy-4-phenylbutyl)amino)phenyl)ethan-1-one] showed a viability at 25 µM of 91.6 ± 2.08%.

Same assay, conditions: Leishmania major; 25 µM; read-out: viability, L.major promastigote (25 µM)
For `N[C@@H](Cc1ccccc1)[C@@H](O)CNc1cccc(C(F)(F)F)c1` [LTC-1029, (2S,3S)-3-Amino-4-phenyl-1-((3-(trifluoromethyl)phenyl)amino)butan-2-ol], the viability at 25 µM was -0.13 ± 0.19%. `CC(=O)c1ccc(NC[C@H](O)[C@@H](N)Cc2ccccc2)cc1` [LTC-1031, 1-(4-(((2S,3S)-3-Amino-2-hydroxy-4-phenylbutyl)amino)phenyl)ethan-1-one] showed a viability at 25 µM of 62.7 ± 3.51%.

Test system: not given
Test: not given
Settings: not given
`N[C@@H](Cc1ccccc1)[C@@H](O)CNc1cccc(C(F)(F)F)c1` [LTC-1029, (2S,3S)-3-Amino-4-phenyl-1-((3-(trifluoromethyl)phenyl)amino)butan-2-ol] gave a melting point of 72 to 74 °C. Compound `CC(=O)c1ccc(NC[C@H](O)[C@@H](N)Cc2ccccc2)cc1` [LTC-1031, 1-(4-(((2S,3S)-3-Amino-2-hydroxy-4-phenylbutyl)amino)phenyl)ethan-1-one] has a melting point of 123 to 125 °C.
